Tests used:
[1] = test system: patients with mild to moderate AD (MMSE 16-26); experiment: Phase 2 placebo-controlled trial: cognitive and functional outcome measures (NTB, ADCS-ADL, CDR-SB); type: in vivo, human
Description: (§1) In a Phase 2, parallel arm, dose-ranging, placebo-controlled, double-blind, multicenter trial in patients with mild to moderate AD (MMSE 16-26), scyllo-inositol was administered to study subjects in immediate release tablets twice daily at the dosage level set for each study arm or identical-appearing placebo tablets were administered in the control arm. […] The study included neuropsychological assessments using the NPI-12 item scale, as well as assessments of scyllo-Inositol (SI) and myo-inositol (MI) brain levels using magnetic resonance spectroscopy (MRS).
Study drug was administered as placebo or one of 3 doses of scyllo-inositol (SI): 250 mg, 1000 mg and 2000 mg, each dose given twice daily (bid) as capsules of either 250 mg or 1000 mg.
(§2) The present study was a dose ranging study in Mild and Moderate AD patients (defined as having MMSE scores of 16-26 inclusive), and included 3 doses of scyllo-insoitol given bid (250 mg, 1000 mg, and 2000 mg) and placebo. The study was of 78 weeks duration and enrolled a total of 353 patients, and 351 received study drug (safety population). Due to safety findings in the 2 highest dose groups, these 2 groups were discontinued and the study's final efficacy analysis was based only on the 250 mg and placebo groups. The primary efficacy analysis was based on the overall population (mild and moderate), but the statistical analysis plan (SAP) Included subgroup analyses by disease severity, and defined Mild as patients with MMSE 23-26 and Moderate 16-22 inclusive. In the overall study population, total randomized to all 4 dose groups=353, total that received study drug=351 (safety population, at any dose). For placebo and 250 mg group, the overall m-ITT (modified intent-to-treat)=166, overall PPS (per protocol set)=96.
Values for all clinical outcome measures were calculated so that a positive change from baseline indicates improvement, and a positive difference from placebo indicates drug benefit.
A sensitivity analysis was performed post-hoc using a wider definition of the Mild sub-group (MMSE: 22-26 inclusive) with a larger sample size. In this sensitivity analysis, the positive effect of the 250 mg on the NTB score approached a significant trend (p<0.1) in the m-ITT analysis (Table 3), and was significant (p<0.05) in the PP analysis (data on file). […] On this basis, all further analyses shown here are defined in the Mild and Moderate subgroups as patients having MMSE scores between 22-26 (Mild) and 16-21 (Moderate) inclusive.

myo-inositol = settings: transgenic mice, Choi et al. 2010; cited from earlier work
[2] = test system: myo-inositol brain levels; experiment: Phase 2 trial: brain myo-inositol and scyllo-inositol levels by magnetic resonance spectroscopy (MRS); type: in vivo, human
Description: as §1
The maximal myo-inositol reduction measured at the 3 studied doses was 44%, 66% and 60% at the 250 mg, 1000 mg, and 2000 mg bid doses, respectively.

CSF Abeta42 = experiment: Phase 2 trial: cerebrospinal fluid Abeta42; type: in vivo, human; settings: 250 mg bid; statistically significant
Description: The effect of the 250 mg dose on cerebrospinal fluid (CSF) Abeta42 reduction (˜27% compared to baseline) was statistically significant, but the higher doses seemed to provide further Abeta42 reduction. Despite the dose-dependent effects of scyllo-inositol on CSF Abeta42, the 2 high doses consistently produced smaller effects on clinical endpoints than the 250 mg dose. This observed dissociation between the dose-dependent effects on CSF Abeta42 and the clinically measured NPI outcomes supports the concept that scyllo Inositol clinical effects are mediated by two distinct mechanisms. These mechanisms include: 1. reduction of brain amyloid load and resulting synaptic toxicity which has previously been disclosed affect memory and reasoning/problem solving, but not NPS, and 2. down-regulation of brain myo-inositol levels with secondary salutary effects on neuronal function (Machado-Vieira et al. 2009). The only other MRS studies measuring in vivo brain levels of myo-inositol and scyllo-inositol after scyllo-inositol administration were in transgenic mice. (Choi, et al. 2010, Neuropharmacology, 59(4-5): 353-357). […] The details of the Phase 2 data are described below.

amyloid β-peptide = settings: given orally, transgenic mouse model of AD; cited from earlier work
[3] = test system: patients with mild to moderate AD (MMSE 16-26); experiment: Phase 2 trial: safety and tolerability; type: in vivo, human; settings: 250 mg bid, elderly study population
Description: as §2
In summary, scyllo-inositol exposures ≧1000 mg bid provide less cognitive and functional benefit than the 250 mg bid dose. These high exposures may be associated with an increase in neuropsychiatric adverse events.

[4] = 250 mg bid, Mild MMSE 22-26 (post-hoc), m-ITT
[5] = 250 mg bid, Mild MMSE 22-26, m-ITT
[6] = 250 mg bid, Mild MMSE 23-26, PPS
[7] = 250 mg bid, Mild MMSE 23-26, m-ITT
[8] = 250 mg bid, Mild MMSE 23-26, m-ITT, week 78, positive = drug benefit

Compound: O[C@H]1[C@H](O)[C@@H](O)[C@H](O)[C@@H](O)[C@@H]1O [scyllo-inositol]
- ADCS-DL drug-placebo difference [1, 4]: 3.15
- CDR-SB drug-placebo difference [1, 4]: 0.97
- NTB drug-placebo difference [1, 4]: 0.2
- ADCS-DL % effect compared to placebo [1, 5]: 42%
- CDR-SB % effect compared to placebo [1, 5]: 42%
- NTB % effect compared to placebo [1, 5]: 75%
- ADCS-ADL % effect compared to placebo [1, 6]: 31%
- ADCS-ADL drug-placebo difference [1, 6]: 2.25
- CDR-SB % effect compared to placebo [1, 6]: 44%
- CDR-SB drug-placebo difference [1, 6]: 0.95
- NTB % effect compared to placebo [1, 6]: 100%
- NTB drug-placebo difference [1, 6]: 0.4
- ADCS-ADL % effect compared to placebo [1, 7]: 35%
- CDR-SB % effect compared to placebo [1, 7]: 40%
- NTB % effect compared to placebo [1, 7]: 72%
- ADCS-ADL drug-placebo difference [1, 8]: 2.26
- CDR-SB drug-placebo difference [1, 8]: 0.87
- NTB drug-placebo difference [1, 8]: 0.2
- magnitude of the 250 mg effect on the NTB ([1]; 250 mg bid, overall mild and moderate population, per protocol subjects, week 78, not statistically significant): 0.15
- NTB benefit compared to placebo ([1]; 250 mg bid, overall population, per protocol subjects, week 78): 40%
- benefit on co-primary cognitive and functional endpoints (NTB and ADCS-ADL) ([1]; overall Mild and Moderate population): no statistically significant benefit
- myo-inositol reductions in frontal cortex and hippocampus (MRS) (myo-inositol): rather modest non significant myo-inositol reductions
- maximal myo-inositol reduction in brain (MRS) ([2]; 250 mg bid, maximal at about 48 to about 78 weeks): 44%
- maximal myo-inositol reduction in brain (MRS) ([2]; 1000 mg bid): 66%
- maximal decrease of myo-inositol levels ([2]; 1000 mg bid and 2000 mg bid): 60-66%
- maximal myo-inositol reduction in brain (MRS) ([2]; 2000 mg bid): 60%
- brain scyllo-inositol level by MRS ([2]; 250, 1000, 2000 mg bid): dose-dependent increase
- CSF Abeta42 reduction compared to baseline (CSF Abeta42): 27%
- aggregation of amyloid β-peptide in the brain (amyloid β-peptide): inhibits aggregation of amyloid β-peptide in the brain
- safety and CNS tolerability [3]: acceptable safety and good CNS tolerability

From patent publication US20140243422A1, “METHODS OF TREATING BEHAVIORAL AND PSYCHIATRIC DISORDERS” (ELAN PHARMACEUTICALS, INC., priority 2011, published 2014)
